Test results: patent US20220378756A1, “ACTIVATING PYRUVATE KINASE R” (FORMA Therapeutics, Inc., priority 2019, published 2022)

System: 2,3-DPG, ATP and p50 in blood
Assay: Phase 1 SAD/MAD, healthy volunteers: pharmacodynamics
Format: in vivo, human
Settings: for median reduction in the concentration of 2,3-DPG, relative to baseline: HV MAD; for Median Percentage Change in 2,3-DPG Levels / Median Percentage Change in ATP Levels (Day 14) / Mean Absolute Change in p50 (mmHg) (Day 14): HV; for Mean Absolute Change in p50 (mmHg) (Day 14): vs baseline
Text: This is a first-in-human (FIH), Phase 1 study of Compound 1 that will characterize the safety, PK, and PD of Compound 1 after a single dose and after repeated dosing first in healthy adult volunteers and then in adolescents or adults with sickle cell disease. Initially, a dose range of Compound 1 in single ascending dose (SAD) escalation cohorts will be explored in healthy subjects. Enrollment of healthy subjects into 2-week multiple ascending dose (MAD) escalation cohorts will be initiated once the safety and PK from at least two SAD cohorts is available to inform the doses for the 2-week MAD portion of the study. The MAD cohorts will then run in parallel to the single dose cohorts. A single dose cohort is planned to understand food effects (FE) on the PK of Compound 1. […] Multiple dose studies in SCD subjects will then be initiated upon completion of MAD studies in healthy volunteers. Compound 1 will be administered in 25 mg and 100 mg tablets delivered orally.
In this study, SAD/MAD cohorts are randomized (3 to 1) to receive Compound 1 or placebo (P). Compound 1 was evaluated first in 4 healthy SAD cohorts and 4 healthy MAD (14-day dosing period) cohorts. Based on the safety, and PK/PD profile from HS, Compound 1 is then evaluated in 1 SCD SAD cohort and 2 SCD MAD cohorts. Specifically, based on the safety and pharmacokinetic/pharmacodynamics (PK/PD) profile in healthy volunteer studies, Compound 1 is evaluated in patients (pts) with SCD, first in a single dose (SD or SAD) cohort and then in multiple-dose (MD or MAD) cohorts (14-day and 12-week). Safety assessments include AEs, vital signs, ECGs and laboratory parameters. PK/PD blood sampling was performed on Day 1 (SAD/MAD) and Day 14 (MAD) and up to 72 h after the last dose and at the end-of-study visit. PD parameters included 2,3-DPG, ATP, and p50 in all cohorts with additional PD studies (including oxygen scan) performed only in the SCD cohorts. PD parameters included 2,3-DPG, ATP, p50, RBC deformability with controlled deoxygenation and reoxygenation (Lorrca® oxygen scan) and varying osmolality (Lorrca® osmoscan)). To maintain study blind, pt identifiers were removed when needed.
Four healthy SAD cohorts were evaluated at doses of 200, 400, 700, and 1000 mg, and four healthy MAD cohorts received 200 to 600 mg total daily doses for 14 days at QD or BID dosing (100 mg BID, 200 mg BID, 300 mg BID, and 400 mg QD). In the food effect (FE) cohort, 10 healthy subjects received 200 mg of Compound 1 QD with and without food.
In the SAD cohorts, the subjects' blood 2,3-DPG levels were measured periodically after dosing by a qualified LC-MS/MS method for the quantitation of 2,3-DPG in blood. Decreased 2,3-DPG blood levels were observed 6 hours following a single dose of Compound 1 at all dose levels (earlier timepoints were not collected). Maximum decreases in 2,3-DPG levels generally occurred ˜24 hours after the first dose with the reduction sustained ˜48-72 hr postdose. Table 16 reports the median percentage change in 2,3-DPG blood levels, relative to baseline, measured over time in healthy volunteers after a single dose of Compound 1 (200 mg, 400 mg, 700 mg, or 1000 mg) or placebo. Accordingly, the median reduction in the concentration of 2,3-DPG, relative to baseline, was at least about […] at all dose levels tested 24 hours after administration of the single dose.
In the MAD cohorts, the subjects' blood 2,3-DPG levels were measured periodically after dosing by a qualified LC-MS/MS method for the quantitation of 2,3-DPG in blood. The maximum decrease in 2,3-DPG on Day 14 was 55% from baseline (median). […] Table 18 reports the median percentage change in 2,3-DPG blood levels, relative to baseline, measured over time after the first dose on days 1 and 14 in healthy volunteers who received daily doses of Compound 1 (100 mg BID, 200 mg BID, or 300 mg BID) or placebo for 14 days. […]

[1] = 100 mg BID, Day 14, 0 h after first daily dose
[2] = 100 mg BID, Day 14, 6 h after first daily dose
[3] = 100 mg BID, Day 14, 8 h after first daily dose
[4] = 100 mg BID, Day 14, 12 h after first daily dose
[5] = 100 mg BID, Day 14, 16 h after first daily dose
[6] = 100 mg BID, Day 14, 24 h after first daily dose
[7] = 100 mg BID, Day 14, 48 h after first daily dose
[8] = 100 mg BID, Day 14, 72 h after first daily dose
[9] = 200 mg BID, Day 14, 0 h after first daily dose
[10] = 200 mg BID, Day 14, 6 h after first daily dose
[11] = 200 mg BID, Day 14, 8 h after first daily dose
[12] = 200 mg BID, Day 14, 12 h after first daily dose
[13] = 200 mg BID, Day 14, 16 h after first daily dose
[14] = 200 mg BID, Day 14, 24 h after first daily dose
[15] = 200 mg BID, Day 14, 48 h after first daily dose
[16] = 200 mg BID, Day 14, 72 h after first daily dose

O=C([C@H](CO)c1ccccc1)N1CC2=C(C1)CN(S(=O)(=O)c1cnc3c(c1)OCCO3)C2 (single isomer, unassigned) [Compound 1]
maximum decrease in 2,3-DPG from baseline (median) (HV MAD cohorts, Day 14): 55% | median reduction in the concentration of 2,3-DPG, relative to baseline (all dose levels, 24 hours after first dose on day 1): at least 25% | median reduction in the concentration of 2,3-DPG, relative to baseline (all dose levels, 24 hours after first dose on day 14): at least 40% | median reduction of p50 (HV SAD, all dose levels, 24 hours after a single dose): 3-5 mmHg | Median Percentage Change in 2,3-DPG Levels (100 mg BID, Day 1, 0 h after first daily dose): 0.0% | Median Percentage Change in 2,3-DPG Levels (100 mg BID, Day 1, 6 h after first daily dose): −16.1% | Median Percentage Change in 2,3-DPG Levels (100 mg BID, Day 1, 8 h after first daily dose): −12.1% | Median Percentage Change in 2,3-DPG Levels (100 mg BID, Day 1, 12 h after first daily dose): −18.1% | Median Percentage Change in 2,3-DPG Levels (100 mg BID, Day 1, 16 h after first daily dose): −18.4% | Median Percentage Change in 2,3-DPG Levels (100 mg BID, Day 1, 24 h after first daily dose): −27.8% | Median Percentage Change in 2,3-DPG Levels [1]: −42.0% | Median Percentage Change in ATP Levels (Day 14) [1]: 41.5% | Median Percentage Change in 2,3-DPG Levels [2]: −44.3% | Median Percentage Change in ATP Levels (Day 14) [2]: 43.8% | Median Percentage Change in 2,3-DPG Levels [3]: −44.7% | Median Percentage Change in ATP Levels (Day 14) [3]: 47.8% | Median Percentage Change in 2,3-DPG Levels [4]: −43.6% | Median Percentage Change in ATP Levels (Day 14) [4]: 45.4% | Median Percentage Change in 2,3-DPG Levels [5]: −43.9% | Median Percentage Change in ATP Levels (Day 14) [5]: 44.8% | Median Percentage Change in 2,3-DPG Levels [6]: −44.1% | Median Percentage Change in ATP Levels (Day 14) [6]: 55.0% | Median Percentage Change in 2,3-DPG Levels [7]: −34.7% | Median Percentage Change in ATP Levels (Day 14) [7]: 52.2% | Median Percentage Change in 2,3-DPG Levels [8]: −20.2% | Median Percentage Change in ATP Levels (Day 14) [8]: 49.2% | Mean Absolute Change in p50 (mmHg) (Day 14) (200 mg BID for 14 days): −4.14 mmHg | Median Percentage Change in 2,3-DPG Levels (200 mg BID, Day 1, 0 h after first daily dose): 0.0% | Median Percentage Change in 2,3-DPG Levels (200 mg BID, Day 1, 6 h after first daily dose): −13.1% | Median Percentage Change in 2,3-DPG Levels (200 mg BID, Day 1, 8 h after first daily dose): −22.3% | Median Percentage Change in 2,3-DPG Levels (200 mg BID, Day 1, 12 h after first daily dose): −23.1% | Median Percentage Change in 2,3-DPG Levels (200 mg BID, Day 1, 16 h after first daily dose): −33.9% | Median Percentage Change in 2,3-DPG Levels (200 mg BID, Day 1, 24 h after first daily dose): −43.5% | Median Percentage Change in 2,3-DPG Levels [9]: −48.2% | Median Percentage Change in ATP Levels (Day 14) [9]: 55.3% | Median Percentage Change in 2,3-DPG Levels [10]: −48.5% | Median Percentage Change in ATP Levels (Day 14) [10]: 48.1% | Median Percentage Change in 2,3-DPG Levels [11]: −44.3% | Median Percentage Change in ATP Levels (Day 14) [11]: 58.4% | Median Percentage Change in 2,3-DPG Levels [12]: −42.2% | Median Percentage Change in ATP Levels (Day 14) [12]: 56.2% | Median Percentage Change in 2,3-DPG Levels [13]: −42.9% | Median Percentage Change in ATP Levels (Day 14) [13]: 57.0% | Median Percentage Change in 2,3-DPG Levels [14]: −44.3% | Median Percentage Change in ATP Levels (Day 14) [14]: 64.0% | Median Percentage Change in 2,3-DPG Levels [15]: −38.7% | Median Percentage Change in ATP Levels (Day 14) [15]: 58.9% | Median Percentage Change in 2,3-DPG Levels [16]: −20.2% | Median Percentage Change in ATP Levels (Day 14) [16]: 54.0% | Mean Absolute Change in p50 (mmHg) (Day 14) (300 mg BID for 14 days): −5.34 mmHg | Median Percentage Change in 2,3-DPG Levels (300 mg BID, Day 1, 0 h after first daily dose): 0.0% | Median Percentage Change in 2,3-DPG Levels (300 mg BID, Day 1, 6 h after first daily dose): −18.8% | Median Percentage Change in 2,3-DPG Levels (300 mg BID, Day 1, 8 h after first daily dose): −23.8% | Median Percentage Change in 2,3-DPG Levels (300 mg BID, Day 1, 12 h after first daily dose): −31.6%
